Reference: ChEMBL document CHEMBL1136068 (Bioorg Med Chem Lett, 2003)
Active and inactive are the calls of the source. No cut-off for these calls is given here.

How the values were obtained:
Glucocorticoid receptor = biological target: T1, Glucocorticoid receptor (Homo sapiens, UniProt P04150); experiment: Antagonist activity at glucocorticoid (hGR) receptor; type: functional
T1 sequence (P04150 whole entry): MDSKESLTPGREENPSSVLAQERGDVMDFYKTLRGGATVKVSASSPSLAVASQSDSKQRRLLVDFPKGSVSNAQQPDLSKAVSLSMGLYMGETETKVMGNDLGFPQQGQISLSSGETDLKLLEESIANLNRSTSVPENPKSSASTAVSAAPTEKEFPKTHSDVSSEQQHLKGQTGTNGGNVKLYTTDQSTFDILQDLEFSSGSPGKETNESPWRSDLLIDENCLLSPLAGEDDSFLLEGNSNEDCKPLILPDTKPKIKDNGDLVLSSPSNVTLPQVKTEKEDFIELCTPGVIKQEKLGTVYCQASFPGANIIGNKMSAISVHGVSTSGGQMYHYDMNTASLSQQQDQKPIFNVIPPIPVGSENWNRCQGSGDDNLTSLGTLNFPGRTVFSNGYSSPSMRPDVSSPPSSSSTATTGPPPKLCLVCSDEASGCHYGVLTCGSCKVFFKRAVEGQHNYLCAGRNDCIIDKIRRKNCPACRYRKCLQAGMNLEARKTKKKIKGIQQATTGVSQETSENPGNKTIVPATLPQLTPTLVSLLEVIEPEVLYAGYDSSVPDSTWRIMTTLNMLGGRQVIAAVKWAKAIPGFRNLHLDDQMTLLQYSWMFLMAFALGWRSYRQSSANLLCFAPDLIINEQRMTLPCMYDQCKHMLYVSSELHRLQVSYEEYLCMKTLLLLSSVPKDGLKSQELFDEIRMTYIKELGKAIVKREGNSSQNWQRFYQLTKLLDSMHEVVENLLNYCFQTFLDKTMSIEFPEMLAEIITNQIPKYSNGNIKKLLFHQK

Estrogen receptor [1] = biological target: T2, Estrogen receptor (Homo sapiens, UniProt Q92731+P03372); experiment: Inhibitory activity against human Estrogen receptor; not active; type: protein assay
Estrogen receptor [2] = biological target: T2, Estrogen receptor; experiment: Antagonist efficacy with estrogen (hER) receptor; not active; type: functional
[3] = biological target: T3, Mineralocorticoid receptor (Homo sapiens, UniProt P08235); experiment: Antagonist activity at mineralocorticoid receptor (hMR); not active; type: functional
T3 sequence (P08235 whole entry): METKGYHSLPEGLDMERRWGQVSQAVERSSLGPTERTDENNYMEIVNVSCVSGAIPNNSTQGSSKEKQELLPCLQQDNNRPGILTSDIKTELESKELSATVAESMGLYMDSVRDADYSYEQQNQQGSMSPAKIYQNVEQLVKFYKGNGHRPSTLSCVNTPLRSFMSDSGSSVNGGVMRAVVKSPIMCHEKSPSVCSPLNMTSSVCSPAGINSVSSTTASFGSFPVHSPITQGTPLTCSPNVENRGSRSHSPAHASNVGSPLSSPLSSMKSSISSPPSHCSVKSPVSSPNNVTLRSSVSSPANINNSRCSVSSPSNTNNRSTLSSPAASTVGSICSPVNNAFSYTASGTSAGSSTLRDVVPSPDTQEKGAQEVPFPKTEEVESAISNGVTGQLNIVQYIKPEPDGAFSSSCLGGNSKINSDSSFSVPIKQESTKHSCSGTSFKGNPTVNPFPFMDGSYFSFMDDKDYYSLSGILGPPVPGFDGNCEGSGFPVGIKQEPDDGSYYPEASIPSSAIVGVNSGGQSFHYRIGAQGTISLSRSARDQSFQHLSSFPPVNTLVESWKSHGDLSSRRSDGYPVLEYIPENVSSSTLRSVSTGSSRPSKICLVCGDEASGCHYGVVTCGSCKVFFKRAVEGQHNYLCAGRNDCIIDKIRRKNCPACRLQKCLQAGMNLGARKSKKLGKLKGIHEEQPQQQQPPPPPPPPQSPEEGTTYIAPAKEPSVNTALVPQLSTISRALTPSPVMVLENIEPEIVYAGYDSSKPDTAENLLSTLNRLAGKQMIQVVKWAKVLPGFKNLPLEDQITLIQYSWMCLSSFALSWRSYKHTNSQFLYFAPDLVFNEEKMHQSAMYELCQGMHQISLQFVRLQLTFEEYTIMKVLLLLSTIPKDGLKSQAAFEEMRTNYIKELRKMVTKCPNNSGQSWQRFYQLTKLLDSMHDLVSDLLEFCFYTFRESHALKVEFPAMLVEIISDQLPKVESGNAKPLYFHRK

[4] = biological target: T4, Mineralocorticoid receptor (Homo sapiens) (UniProt P08235); experiment: Antagonist efficacy at mineralocorticoid receptor (hMR); not active; type: functional
T4 sequence (whole entry): T3 sequence (P08235 whole entry)

[5] = biological target: T5, Progesterone receptor (Homo sapiens) (UniProt P06401); experiment: Agonist efficacy towards human progesterone receptor (hPR) using the cotransfection assay in CV-1 cells; type: functional, cell-based
T5 sequence (whole entry): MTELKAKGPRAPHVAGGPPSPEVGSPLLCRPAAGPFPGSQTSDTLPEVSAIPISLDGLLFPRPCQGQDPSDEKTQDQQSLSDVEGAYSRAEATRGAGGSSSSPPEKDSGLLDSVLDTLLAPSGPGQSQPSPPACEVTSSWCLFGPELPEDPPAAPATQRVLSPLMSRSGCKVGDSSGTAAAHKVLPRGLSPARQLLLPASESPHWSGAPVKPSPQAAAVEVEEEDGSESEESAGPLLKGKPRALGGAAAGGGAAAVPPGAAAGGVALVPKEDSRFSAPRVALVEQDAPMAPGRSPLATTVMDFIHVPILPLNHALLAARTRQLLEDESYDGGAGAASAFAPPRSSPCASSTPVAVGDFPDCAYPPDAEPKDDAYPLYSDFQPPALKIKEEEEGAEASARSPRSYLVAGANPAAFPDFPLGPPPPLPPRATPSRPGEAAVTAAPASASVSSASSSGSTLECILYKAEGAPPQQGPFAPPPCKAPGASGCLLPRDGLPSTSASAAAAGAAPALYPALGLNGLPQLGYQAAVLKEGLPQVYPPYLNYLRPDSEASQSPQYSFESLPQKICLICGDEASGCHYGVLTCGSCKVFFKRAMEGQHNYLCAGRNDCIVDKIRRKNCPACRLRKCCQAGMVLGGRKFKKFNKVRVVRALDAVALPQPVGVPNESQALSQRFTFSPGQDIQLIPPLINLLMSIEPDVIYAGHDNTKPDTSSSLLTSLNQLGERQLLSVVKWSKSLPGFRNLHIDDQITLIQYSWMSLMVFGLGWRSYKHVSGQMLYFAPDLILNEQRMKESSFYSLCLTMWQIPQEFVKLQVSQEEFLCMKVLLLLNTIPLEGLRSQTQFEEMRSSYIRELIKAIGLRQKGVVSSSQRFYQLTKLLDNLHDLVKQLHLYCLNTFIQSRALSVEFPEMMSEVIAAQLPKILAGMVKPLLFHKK

Progesterone receptor [6] = biological target: T6, Progesterone receptor (Homo sapiens, UniProt P06401); experiment: Effective concentration for agonist activity towards human progesterone receptor (hPR) using the cotransfection assay in CV-1 cells; type: functional, cell-based
T6 sequence (P06401 whole entry): T5 sequence (whole entry)

[7] = biological target: T5, Progesterone receptor (Homo sapiens); experiment: Antagonistic efficacy towards human progesterone receptor (hPR) using the cotransfection assay in CV-1 cells; Not active; type: functional, cell-based
Progesterone receptor [8] = biological target: T6, Progesterone receptor; experiment: Inhibitory concentration for antagonistic activity towards human progesterone receptor (hPR) using the cotransfection assay in CV-1 cells; Not active; type: functional, cell-based
Progesterone receptor [9] = biological target: T6, Progesterone receptor; experiment: Binding affinity to human progesterone receptor

Row | SMILES | IC50 (Glucocorticoid receptor) [nM] | IC50 (Estrogen receptor [1]) [nM] | Efficacy (Estrogen receptor [2]) [%] | IC50 [3] [nM] | Efficacy [4] [%] | Efficacy [5] [%] | EC50 (Progesterone receptor [6]) [nM] | Efficacy [7] | IC50 (Progesterone receptor [8]) | Ki (Progesterone receptor [9]) [nM]
1 | CC(C)=C/C=C1\Oc2ccc(F)cc2-c2ccc3c(c21)C(C)=CC(C)(C)N3 | 177 | > 1000 | < 20 | > 1000 | < 20 | 172 | 1.7 | inactive | Not Active | –
2 | CC/C(C)=C1\Oc2ccc(F)cc2-c2ccc3c(c21)C(C)=CC(C)(C)N3 | – | – | – | – | – | 112 | 11 | inactive | Not Active | 8
3 | CC(=O)C[C@]1(C(C)=O)CC[C@H]2C3C[C@H](C)C4=CC(=O)CC[C@]4(C)[C@H]3CC[C@@]21C (stereo partly drawn) | 10 | > 1000 | < 20 | > 1000 | < 20 | 80 | 0.15 | inactive | Not Active | 0.34
4 | CC1=CC(C)(C)Nc2ccc3c(c21)/C(=C/Br)Oc1ccc(F)cc1-3 | – | > 1000 | < 20 | > 1000 | < 20 | 135 | 2.2 | inactive | Not Active | 2.1
